Biological target: β-secretase 1 (BACE1) (Homo sapiens, UniProt P56817)
Assay: HitHunter BACE1 enzyme fragment complementation chemiluminescence assay, […] h incubation, dose response
Format: biochemical

Chain of β-secretase 1 (BACE1) (P56817 46-457): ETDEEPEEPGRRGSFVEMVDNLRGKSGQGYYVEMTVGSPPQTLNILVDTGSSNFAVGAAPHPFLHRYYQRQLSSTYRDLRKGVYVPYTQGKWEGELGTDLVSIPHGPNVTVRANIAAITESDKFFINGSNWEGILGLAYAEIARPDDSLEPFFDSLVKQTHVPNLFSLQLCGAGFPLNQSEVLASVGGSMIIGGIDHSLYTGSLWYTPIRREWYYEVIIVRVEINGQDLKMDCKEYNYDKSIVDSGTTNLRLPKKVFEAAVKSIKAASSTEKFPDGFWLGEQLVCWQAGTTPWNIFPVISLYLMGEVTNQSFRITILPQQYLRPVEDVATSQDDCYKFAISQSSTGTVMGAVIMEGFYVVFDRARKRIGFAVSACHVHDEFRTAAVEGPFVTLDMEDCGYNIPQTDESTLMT

SMILES | IC50
C=C1CCC[C@H]2[C@](C)(CC3=C(O)C(=O)C=C(OC)C3=O)[C@@H](C)CC[C@]12C [compound 1, ilimaquinone] | 65 µM
C=C1CCC[C@H]2[C@](C)(CC3=C(O)C(=O)C=C(N)C3=O)[C@@H](C)CC[C@]12C [compound 3, smenospongine] | 78 µM

— publication PMC6669564, “Cytotoxic Sesquiterpenoid Quinones and Quinols, and an 11-Membered Heterocycle, Kauamide, from the Hawaiian Marine Sponge Dactylospongia elegans” (Marine Drugs, 2019)
